In patent US20070197509A1, “Compositions and methods for modulating gated ion channels” (PainCeptor Pharma Corporation, priority 2005, published 2007):
Entries after “also recorded” stand apart in the source; their conditions may differ. Where two headings read alike, the source gives them in different places.

Tests used:
[1] = biological target: T1, hASIC1a (Homo sapiens, UniProt P78348); test: Whole-cell patch clamp of acid-induced currents in cells transfected with hASIC1a; type: cell-based; set-up: expressed in transfected cells; details: for effect on acid-induced hASIC1a inward current (FIGS. 2A, 2B, 3C): whole-cell patch clamp, dose-inhibition curves
T1 sequence (P78348 1-528): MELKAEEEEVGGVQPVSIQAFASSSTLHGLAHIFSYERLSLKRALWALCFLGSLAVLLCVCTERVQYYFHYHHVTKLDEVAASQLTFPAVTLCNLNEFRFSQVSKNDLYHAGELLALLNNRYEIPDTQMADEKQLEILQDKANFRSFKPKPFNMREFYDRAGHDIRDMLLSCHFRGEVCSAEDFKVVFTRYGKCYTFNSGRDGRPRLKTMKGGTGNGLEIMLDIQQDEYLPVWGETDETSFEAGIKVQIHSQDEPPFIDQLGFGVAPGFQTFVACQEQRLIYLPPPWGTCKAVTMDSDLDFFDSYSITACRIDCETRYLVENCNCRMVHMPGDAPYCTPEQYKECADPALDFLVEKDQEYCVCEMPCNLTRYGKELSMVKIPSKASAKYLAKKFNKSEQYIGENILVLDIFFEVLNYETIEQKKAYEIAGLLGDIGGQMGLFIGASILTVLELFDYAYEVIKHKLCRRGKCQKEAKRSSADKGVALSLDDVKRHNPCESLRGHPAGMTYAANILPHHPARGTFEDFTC
Protocol: Another example of an in vitro assessment method consists of using mammalian heterologous expression systems, which are known to those skilled in the art, and include a variety of mammalian cell lines such as COS, HEK, e.g., HEK293 and/or CHO, cells. Cell lines are transfected with gated ion channel(s) and used to perform electrophysiology as follows:
All experiments are performed at room temperature (20-25° C.) in voltage clamp using conventional whole cell patch clamp methods (Neher, E., et al. (1978) Pfluegers Arch 375:219-228).
The amplifier used is the EPC-9 (HEKA-electronics, Lambrect, Germany) run by a Macintosh G3 computer via an ITC-16 interface. Experimental conditions are set with the Pulse-software accompanying the amplifier. Data is low pass filtered and sampled directly to hard-disk at a rate of 3 times the cut-off frequency.
Pipettes are pulled from borosilicate glass using a horizontal electrode puller (Zeitz-lnstrumente, Augsburg, Germany). The pipette resistances are 2-3 MOhms in the salt solutions used in these experiments. The pipette electrode is a chloridized silver wire, and the reference is a silver chloride pellet electrode (In Vivo Metric, Healdsburg, USA) fixed to the experimental chamber. The electrodes are zeroed with the open pipette in the bath just prior to sealing.
Coverslips with the cells are transferred to a 15 μl experimental chamber mounted on the stage of an inverted microscope (IMT-2, Olympus) supplied with Nomarski optics. Cells are continuously superfused with extracellular saline at a rate of 2.5 ml/min. After giga-seal formation, the whole cell configuration is attained by suction. The cells are held at a holding voltage of −60 mV and at the start of each experiment the current is continuously measured for 45 s to ensure a stable baseline. Solutions of low pH (<7) are delivered to the chamber through a custom-made gravity-driven flowpipe, the tip of which is placed approximately 50 μm from the cell. Application is triggered when the tubing connected to the flowpipe is compressed by a valve controlled by the Pulse-software. Initially, low pH (in general, pH 6.5) is applied for 5 s every 60 s. The sample interval during application is 550 μs. After stable responses are obtained, the extracellular saline as well as the low-pH solution are switched to solutions containing the compound to be tested. The compound is present until responses of repeatable amplitude are achieved. Current amplitudes are measured at the peak of the responses, and effect of the compounds is calculated as the amplitude at compound equilibrium divided by the amplitude of the current evoked by the pulse just before the compound was included.
The following salt solutions are used: extracellular solution (mM): NaCl (140), KCl (4), CaCl2 (2), MgCl2 (4), HEPES (10, pH 7.4); intracellular solution (mM): KCl (120), KOH (31), MgCl2 (1.785), EGTA (10), HEPES (10, pH 7.2). In general, compounds for testing are dissolved in 50% DMSO at 500 fold the highest concentration used.
CHO cells were transfected with hASIC1a and used to perform full dose-inhibition curves with Compound B, and Compound R. Results are expressed as a fraction of the control peak current obtained in the absence of the test substance.

[2] = test system: T2, hASIC3 (h3) and/or hASIC1a (h1a); test: FlexStation/FLIPR assay, channel not marked in the cell; type: cell-based, human; details: Table H, cells without channel mark; HEK293; read-out: EC50 (μM) Flex/FLIPR
T2 construct: EC50 (μM) in one experiment; HEK293
Excerpt: The MES-induced peak calcium response (or change in membrane potential), in the presence of test substance, is expressed relative to the MES response alone. Test substances that block the MES-induced calcium response (or change in membrane potential) are re-tested in triplicates. Confirmed hits are picked for further characterization by performing full dose-response curves to determine potency of each hit compound as represented by the IC50 values (i.e., the concentration of the test substance which inhibits 50% of the MES-induced calcium and/or membrane potentiation response; see, for example, FIG. 1).
The data shown in Table H was acquired using the FlexStation assay described in Example 1 on HEK293 cells expressing hASIC3 (h3) and/or hASIC1a (h1a).

[3] = Table H, read-out: IC50 (μM) Patch Clamp (h1a)

Row | SMILES | IC50 [1, 3] [µM] | EC50 [2] [µM] | effect on acid-induced hASIC1a inward current (FIGS. 2A, 2B, 3C) [1] | IC50 ([1]; patch clamp (PC), Tables A-F, h1a printed in some cells only, read-out: Biological Data (IC50 uM) h1a (PC)) [µM] | selectivity hASIC1a versus hASIC3 ([1]; patch clamp, CHO cells, FIG. 3) | reversibility of the effect on hASIC1a current ([1]; washout of the compound after 1 μM)
1 | COc1ccc(C(=O)CN2CCN(c3cc(C)nc4ccccc34)CC2)cc1 [Compound A, 1-(4-methoxy-phenyl)-2-[4-(2-methyl-quinolin-4-yl)-piperazin-1-yl]-ethanone] | > 10 | < 10 | – | – | – | –
2 | Fc1cccc2c(OC3CCN(Cc4ccccc4)CC3)cc(C(F)(F)F)nc12 [Compound B, 4-(1-benzyl-piperidin-4-yloxy)-8-fluoro-2-trifluoromethyl-quinoline] | – | – | dose-dependently reduce hASIC1a activity; also recorded: dose-dependent reduction | – | – | –
3 | Cc1cc(OC2CCN(Cc3ccccc3)CC2)c2ccccc2n1 [Compound R, 4-(1-benzyl-piperidin-4-yloxy)-2-methyl-quinoline] | 3.8 | > 10 | dose-dependently reduce hASIC1a activity; also recorded: reduced the hASIC1a pH-evoked response in a dose-dependent manner; also recorded: dose-dependent reduction | 2 to 10 | selective against specific ASIC subunits; also recorded: selective for hASIC1a over hASIC3 | fully reversed upon washout
